Consider one compound from paper PMC10958225, “Therapeutic potential of orally applied KB-R7943 in streptozotocin-induced neuropathy in rats” (Heliyon, 2024).

For data set [1], the system named is STZ-treated rats with neuropathy. In words: Forced swim test (FST). The following applies: 10 mg/kg p.o. once daily from day 28, test on day 41, 5-min test. Format: in vivo, rat. Here is the method:
(§1) On the day of diabetic state induction, rats were deprived of food for 6 h (from 8 a.m. to 2 p.m.). A single i.p. injection was applied with 55 mg/kg STZ in the ice-cold citrate buffer (0.1 M pH 4.4). The observed polydipsia, polyuria, reduced thriving with lower body weight, and poor coating appearance indirectly indicated the development of diabetes. On day 28, after 6 h of fasting, blood glucose was measured with an Xpress Statstrip Glucometer (Nova Biomedical Corporation, Waltham, MA, USA) from the tail vein. A cut-off value of blood glucose >13 mmol/l was adopted. […] Controls were once i.p. injected with ice-cold citrate buffer 0.1 M pH 4.4 only.
(§2) Three animals per cage were housed for the experiment 2 (Fig. 3B). Rats were gently manipulated daily before undertaking the actual behavior tests. […] Body weight (BW), coat score (CS), CPT, R–S, and FT were evaluated on day 28th post-STZ, and after that, rats were distributed into the treatment groups as follows. • C-Veh – Controls, vehiculum treatment (n = 12) • NP-Veh – STZ-treated rats with neuropathy, vehiculum treatment (n = 12) • NP-KB-R7943 – 5 mg - STZ-treated rats, with neuropathy, KB-R7943 5 mg/kg treatment (n = 12) • NP-KB-R7943 – 10 mg – STZ-treated rats, with neuropathy, KB-R7943 10 mg/kg (n = 12) • NP-AMT – 10 mg - STZ-treated rats, with neuropathy, amitriptyline 10 mg/kg (n = 12). […]

Data set [2] has the same test system. Briefly: 24-hour spontaneous physical activity. The data set is classed as in vivo, rat. To be noted: 10 mg/kg p.o. once daily from day 28, from day 41. The protocol: as §1, §2
Data set [3] shares this test system. In words: Coat state score. The data set is classed as in vivo, rat. To be noted: chronic p.o. treatment from day 28, day 42. Here is the method: as §1
as §2, with “3B).” for “3B). Rats were gently manipulated daily before undertaking the actual behavior tests.”
Coat state, water consumption, and body weight were evaluated weakly. […] Water consumption was measured per cage. […]

For data set [4] the test system is unchanged. Briefly: Cold plate test. To be noted: 10 mg/kg p.o. once daily, end of the trial. Format: in vivo, rat. The protocol:
as §1
as §2, with “3B).” for “3B). Rats were gently manipulated daily before undertaking the actual behavior tests.”
This test was used for allodynia testing. […] Two independent observers recorded the time-to-paw lifting. […]

Data set [5] shares this test system. Briefly: Paw pressure (Randall-Selitto) test. The following applies: 10 mg/kg p.o. once daily, vs. NPveh. The data set is classed as in vivo, rat. The protocol: as §1, §2
Data set [6] shares this test system. Briefly: Formalin test (0.5% formalin). The data set is classed as in vivo, rat. Here is the method: as §1
(§3) Three animals per cage were housed for the experiment 2 (Fig. 3B). Rats were gently manipulated daily before undertaking the actual behavior tests. One week after adaptation, the Randl-Stellito (R–S) test, cold plate test (CPT), and formalin tests (FT) were performed at baseline. After that, the diabetes model was made with 48 rats. Twelve animals served as controls. Body weight (BW), coat score (CS), CPT, R–S, and FT were evaluated on day 28th post-STZ, and after that, rats were distributed into the treatment groups as follows. • C-Veh – Controls, vehiculum treatment (n = 12) • NP-Veh – STZ-treated rats with neuropathy, vehiculum treatment (n = 12) • NP-KB-R7943 – 5 mg - STZ-treated rats, with neuropathy, KB-R7943 5 mg/kg treatment (n = 12) • NP-KB-R7943 – 10 mg – STZ-treated rats, with neuropathy, KB-R7943 10 mg/kg (n = 12) • NP-AMT – 10 mg - STZ-treated rats, with neuropathy, amitriptyline 10 mg/kg (n = 12).
OraPlus was used as a vehiculum for gavage (16 gauge feeding tube 10 ml/kg) in all rats. KB-R7943 in two doses (5 or 10 mg/kg) or amitriptyline 10 mg/kg was applied once daily until day 49. Behavior tests were performed […] after the oral gavage of the corresponding day, in the afternoon, starting from 2 p.m. […] On day 41, an FST was performed, and at 2 p.m., rats were placed individually for 24 h to assess spontaneous physical activity. After that, on day 42, the same battery of the tests as on day 28 were reassessed.
The formalin test was performed 1 h after the R–S test to decrease the interaction with the mechanical stimulus from the previous test. For the same reason, the left hind paws were injected. A needle (U-100 Insulin Syringe, Beckton and Dickinson, Dublin, Ireland) was used. A low-dose intraplantar injection of formalin 50 mcl 0.5% was done, and rats were placed in individual transparent cases for observation. Two independent observers measured the time spent licking or biting the injected paw, and the first (0–5 min) and the second post-injection phase (20–30 min) were reported in sec.

For data set [7] the test system is unchanged. In words: Mortality and adverse effects during chronic oral treatment. The data set is classed as in vivo. To be noted: p.o. once daily day 28 to 49. Here is the method:
as §3
OraPlus was used as a vehiculum for gavage (16 gauge feeding tube 10 ml/kg) in all rats. KB-R7943 in two doses (5 or 10 mg/kg) or amitriptyline 10 mg/kg was applied once daily until day 49. Behavior tests were performed […] after the oral gavage of the corresponding day, in the afternoon, starting from 2 p.m. […] On day 41, an FST was performed, and at 2 p.m., rats were placed individually for 24 h to assess spontaneous physical activity. […]

As to `CN(C)CCC=C1c2ccccc2CCc2ccccc21` [amitriptyline], the “immobility time in FST” value in data set [1] came out at 137.50 ± 31.94 s. Moreover, in data set [2], the “24-h spontaneous physical activity” value stood at 1678.33 ± 282.00 beam breaks. Besides, the “effect on coat score” value in data set [3] is recorded as “ameliorated”. Moreover, the “effect on cold allodynia (cold plate test)” value in data set [4] was “demonstrated a reversal effect”. Also, the “effect on mechanical allodynia (R–S test)” value in data set [5] is “partly reversed”. For the same compound, the “effect on formalin test first phase (0–5 min)” value in data set [6] (10 mg/kg p.o. once daily, vs. NP-Veh) is listed as “attenuated”. Moreover, the “effect on formalin test second phase (20–30 min)” value in data set [6] (amitriptyline 10 mg/kg, KB-R7943 5 and 10 mg/kg p.o. once daily, vs. NPveh, dose-dependent) is given as “attenuated”. Moreover, the mortality during treatment entry in data set [7] is “No one rat died”.
